Test results as given in patent publication US20230089723A1, “AMINO ACID COMPOSITIONS AND METHODS FOR MUSCLE AND MYOTUBE MODULATION” (AXCELLA HEALTH INC., priority 2020, published 2023).

Tests used:
[1] = tested on: differentiating cultured human myotubes (primary myoblasts W018); assay: In vitro model for myogenesis: myotube fusion index (modified MyoScreen); format: cell-based; details: myotubes in DMEM with 0.15× plasma amino acid profile, treated with amino acids at 1× human plasma concentration, 4 days
Experimental: (§1) Primary myoblasts (W018) were amplified and seeded into CYTOOplates on Day 0. After one day differentiation was started in DMEM/F12+GlutaMAX supplemented with 0.1% Horse Serum.
Fusion Index Analysis after 4 Days by Fluorescence Microscopy
Images were acquired with Operetta HCS platform (Perkin Elmer) using a 10× objective in two fluorescent channels: nuclei, Troponin T. Image processing and analysis were performed with a dedicated algorithm developed on Acapella high Content imaging Software (Perkin Elmer) at CYTOO. Nuclei within myotubes were counted under myotube mask generated by troponin co-stain and fusion index was calculated as the percentage of fused nuclei in myotube over total nuclei. Statistical analysis was done with T-Test relative to the untreated condition.

[2] = tested on: cultured human myotubes (primary myoblasts W018); assay: In vitro model for muscle protein synthesis: Click-iT OPP incorporation in myotubes (modified MyoScreen); format: cell-based; details: myotubes in DMEM with 0.15× plasma amino acid profile, treated with amino acids at 1× human plasma concentration, 4 days; Click-iT signal in myotube mask
Experimental: The ability of amino acids to influence protein synthesis in muscle cells was assessed using a modified version of MyoScreen (Cytoo SA, Grenoble Fr).
as §1
Protein Synthesis after 4 Days by Fluorescence Microscopy
After 4 days of culture, cells were washed twice with PBS 1× (Gibco), fixed with 4% Paraformaldehyde, and washed twice with PBS 1× (100 μL). Cells were then permeabilized by 0.5% Triton X-100 followed by three washes with PBS. After fixation, cells were immuno-stained for troponin to identify specific myotubes. […] In the Click-iT assay, 0-propargyl-puromycin (OPP) is efficiently incorporated into newly translated proteins in vivo for 30 minutes and then fluorescently labeled with Alexa Fluor® dye, which can be detected by high-content imaging (Molecular Devices). Click-iT signal was restricted to the myotube mask generated by the troponin co-stain. Data was collected as Click-iT mean intensity in myotubes (au). Images were acquired with Operetta HCS platform (Perkin Elmer) using a 10× objective in three fluorescent channels: nuclei, Troponin T, and Click-iT. Image processing and analysis were performed with a dedicated algorithm developed on Acapella high Content imaging Software (Perkin Elmer) at CYTOO. […]

SMILES: N[C@@H](CC(=O)O)C(=O)O [D, Aspartic acid/Aspartate]
- Fusion Index median [1]: 0.05657
- Protein Synthesis median [2]: 0.1078
